Data on 89 compounds can be found in a melting point compilation (Tetko et al.; mined from patent text by program, amines drawn as free bases though some values may be those of a salt).

Regarding `COC(=O)[C@H](O)[C@@H](NC(=O)OC(C)(C)C)c1ccc(F)cc1`, the melting point (in general, the temperature, or range, at which the solid turns liquid) was found to be 125 °C.

As to `N#Cc1cccc(N2CCc3cc(Cl)ccc32)c1`, the melting point fell in the range of 120 to 121 °C.

In turn, `O=C1[C@H]2CCC[C@H]2Nc2ccccc2N1Cc1ccc(OCc2ccccc2)cc1` (relative stereo) returned a melting point of 154 to 155 °C.

The compound `CCC(C)CCCCCCCCCCCCCCCCC(=O)O` (centres undefined) showed a melting point of 53 °C.

Consider `O=c1[nH]nc(-c2ccc(N=Cc3ccc(O)cc3)cc2)c(O)c1O`, for which the melting point came to 233 °C.

The compound `CCc1cc2c(s1)SCC1CC(=O)N(c3ccc(Cl)cc3)N=C21` (centres undefined) showed a melting point of 138 to 141 °C.

`CCOc1cc2c(Nc3cc(OC)c(Cl)cc3Cl)c(C#N)cnc2cc1Br` had a melting point above 250 °C.

For the compound `CO[C@@H]1C=C(S(=O)(=O)c2ccccc2)[C@@H](C(C)C)CC1`, the melting point stood at 113 °C.

`Cn1cc(C2=C(c3cn(CCCSC4=NCCS4)c4ccccc34)C(=O)NC2=O)c2ccccc21` returned a melting point of 170 to 173 °C.

As for `CC(C)(C)c1ccc(/C=N/OCCCOc2ccc(C(=O)O)c(NC(=O)c3ccc4ccccc4c3)c2)cc1`, the melting point fell in the range of 156 to 158 °C.

For the compound `O=C(CCl)NC1CCc2ccccc2C1=O` (centres undefined), the melting point was in the range of 118 to 122 °C.

With `Cc1cc([N+](=O)[O-])cc(C)c1Oc1ccc([N+](=O)[O-])c(Nc2ccc(C#N)cc2)n1`, the melting point was in the range of 250 to 252 °C.

In turn, `O=C(N[C@@H](CO)c1nc2cc(Br)ccc2[nH]1)c1ccc(C(=O)N2CC=CC2)c(Cl)c1` returned a melting point of 124 to 126 °C.

`CCc1n[nH]c(=O)n1C` gave a melting point of 86 °C.

Regarding `COC(=O)c1ccc(-c2ccc3c(c2)CCN(C2CCN(C4CCC4)C2)C3=O)c(F)c1` (centres undefined), the melting point stood at 75 °C.

Compound `Cc1oc(-c2ccccc2)nc1COc1ccc(CON=C(CCC(=O)O)c2ccncc2)cc1` gave a melting point of 161 to 162 °C.

Consider `CS(=O)(=O)Nc1ccc(OCCN2CCC(C(=O)c3ccc(NS(C)(=O)=O)cc3)CC2)cc1`, for which the melting point lay within 168 to 172 °C.

`CC(=O)SCC(CC(C)C)C(=O)Nc1cccc(C(=O)O)c1C` (centres undefined) displayed a melting point of 154 to 156 °C.

In turn, `CCc1nn(-c2ccc(F)cc2)c2cc(C(=O)Nc3c(Cl)cncc3Cl)ccc12` registered a melting point of 197 to 199 °C.

In the case of `CCCCCCCCCCCCCCCC(=O)NCCCN1CCCCC1C` (centres undefined), the melting point fell in the range of 48 to 50 °C.

Compound `O=C(C(=O)N1CCC(Oc2ccc(F)cc2)CC1)c1c[nH]c2ccccc12` yielded a melting point of 205 to 207 °C.

Compound `COc1ccc(S(=O)(=O)C2(C(=O)O)CCN(Cc3cccc(OC)c3)CC2)cc1` showed a melting point of 130 °C.

In turn, `Cn1ccc2cc(N3Cc4ccc(O)cc4C3=O)ccc21` yielded a melting point of 230 to 235 °C.

Turning to `c1ccc(Oc2ccc3[nH]c4c(c3c2)CNCC4)cc1`, the melting point was 179 °C.

Take `CCCC(=O)C1=C(O)CC(c2c(C)c(C)c(C)c3ccoc23)CC1=O` (centres undefined): the melting point came to 130 °C.

Turning to `OCc1cccc2c1[nH]c1c3cc(Br)ccc3oc21`, the melting point was 218 to 219 °C.

As to `Nc1nc2ccccc2c2c1nc1n2OCC1`, the melting point was above 300 °C.

`CNc1cc(F)ccc1C(=O)CS(=O)(=O)NC`: the melting point lay in the range of 140 to 142 °C.

`CCCCSc1c(N)cc(C(=O)O)cc1S(N)(=O)=O` returned a melting point of 223 to 224 °C.

For the compound `CC1CON2C(=O)c3cc(Cl)ccc3OC2C1` (centres undefined), the melting point fell in the range of 121 to 140 °C.

`CCc1c2n(c3ccccc13)C(=O)C(Cc1ncn(C(c3ccccc3)(c3ccccc3)c3ccccc3)c1C)CC2` (centres undefined) returned a melting point of 78 to 82 °C.

The compound `COc1cc(OC)cc(-c2nc(C)nn2-c2ccc(S(N)(=O)=O)cn2)c1` registered a melting point of 195 to 196 °C.

In the case of `COc1cccc(-c2nc(-c3ccc(S(C)=O)cc3)[nH]c2-c2ccncc2)c1` (centres undefined), the melting point was 167 to 168 °C.

On to `O=C(O)/C=C/c1cc(OC2CCOCC2)nn1Cc1ccc(Cl)cc1Cl`, for which the melting point is 191 to 192 °C.

In turn, `COc1nc(C)c(C)nc1NC(=O)N1CCN(c2cccc(Br)c2)CC1` gave a melting point of 158 to 160 °C.

Consider `CN1C2CCC1CC(O)(c1ccc(C(F)(F)F)cc1)C2` (centres undefined), for which the melting point lay within 189 to 190 °C.

For the compound `Cc1c(C)c2c(c(C)c1NC(=O)NC(C)(C)C)C(O)(c1ccc3ccccc3c1)C(C)(C)O2` (centres undefined), the melting point is 212 to 214 °C.

Consider `COc1ccc(CC2CCN(CCS(=O)c3ccc4[nH]c(=O)oc4c3)CC2)cc1` (centres undefined), for which the melting point was 169 to 170 °C.

The compound `Cc1nnc(-c2ccc3occ(-c4cnn(C)c4)c3c2)o1` had a melting point of 147 to 148 °C.

`Cc1ccc(S(=O)(=O)OCC2Cc3cc(Cl)cc(C(C)(C)C)c3O2)cc1` (centres undefined) displayed a melting point of 74 to 77 °C.

With `N=C(N)c1ccc(S(=O)(=O)NCCc2ccc(OCC(=O)O)cc2)cc1`, the melting point lay within 292 to 293 °C.

Regarding `CNC(=S)NCCCSc1ncco1`, the melting point was in the range of 43 to 45 °C.

`NS(=O)(=O)c1cc(C(=O)O)cc([N+](=O)[O-])c1Nc1ccccc1` displayed a melting point of 261 to 262 °C.

The compound `Clc1ccc2nc(-c3ccc(Cl)s3)cn2n1` had a melting point of 226 to 230 °C.

In the case of `Cc1cccc(-c2nc(NC(=O)Nc3ccccc3)sc2-c2ccnc(C)n2)c1`, the melting point is 141 to 142 °C.

In turn, `Cc1ccc(S(=O)(=O)OCCCC2CCN(C(=O)OCc3ccccc3)CC2)cc1` showed a melting point of 59 to 60 °C.

The compound `O=C(O)CCn1ccc2cc(OCc3ccc4ccccc4n3)ccc21` displayed a melting point of 157 to 160 °C.

`Cc1nc(-n2cnn(Cc3ccc(F)cc3)c2=O)sc1-c1nn[nH]n1` gave a melting point of 136 to 139 °C.

On to `O=c1c2ccccc2[nH]n2cccc12`, for which the melting point is above 300 °C.

With `CCS(=O)(=O)c1ccc(-c2coc3ccc(-c4nnc(C)o4)nc23)cc1`, the melting point fell in the range of 246 to 247 °C.

For the compound `CCCOc1cccc(NC(=O)c2ccccc2C)c1`, the melting point is 92 to 94 °C.

For `COc1ccc(C=C2c3ccccc3C(=NOCC(=O)O)c3ccccc32)cc1O`, the melting point is 232 to 234 °C.

Compound `OCC12CC(c3ccccc31)c1ccccc12` came in with a melting point of 165 to 166 °C.

Compound `CC(C)(C)OC(=O)c1ccc(N)cc1F` yielded a melting point of 100 to 101 °C.

The compound `Cc1cccc(COc2cccc(OCc3nc(-c4ccccc4)oc3C)c2)c1C(=O)O` registered a melting point of 144 to 145 °C.

As to `O=C(COc1ccc(Cl)cc1)N1Cc2ccc(C(=O)C(Cl)(Cl)Cl)n2Cc2ccccc21`, the melting point lay within 165 to 167 °C.

`CS(=O)(=O)NCC(=O)N[C@@H]1CN2C(=O)N(c3cc(Cl)nc(Cl)c3)C(=O)[C@@]2(Cc2ccc(OC(F)(F)F)cc2)C1`: the melting point worked out at 105 °C.

Consider `CCn1nc(-c2cnc3[nH]cc(C(=O)N[C@H](C)C(=O)N4CC(C#N)C4)c3n2)c2ccc(Cl)cc21`, for which the melting point is 248 to 255 °C.

In the case of `COc1ccc(C2CCN(C(=O)C(=O)NO)CC2)cc1CC1CCCC1`, the melting point came out at 138 °C.

Regarding `COC(=O)NNC(=O)Cc1ccccc1`, the melting point was in the range of 94 to 95 °C.

Take `O=C1Cc2cccc(C(=O)c3ccc(F)cc3)c2N1`: the melting point lay within 185 to 187 °C.

In the case of `CN(CCc1ccccc1)C(=O)Cn1cc(C=Cc2nnn[nH]2)c2cc(OCc3ccccc3)ccc21`, the melting point lay within 203 to 205 °C.

`Cc1oc(-c2ccccc2)nc1COc1ccc(C=CC=O)cc1` showed a melting point of 114 to 115 °C.

For the compound `CC(C)(O)P(=O)(O)CCCN`, the melting point was in the range of 243 to 244 °C.

As to `Cc1c(NC(=O)c2ccc(C#CC3(O)CCC3)cc2)ccc2cc(CNCC3CCOCC3)n(C)c12`, the melting point was in the range of 202 to 204 °C.

Turning to `CCCCCCCCCc1ccccc1O`, the melting point stood at 80 °C.

In the case of `O=[N+]([O-])c1cc(Br)ccc1-c1ccccc1F`, the melting point was 42 to 45 °C.

`CCCCCS(=O)(=O)NC(=O)/C=C/c1ccc(OCCCOC)cc1Oc1ncc(C(F)(F)F)cc1Cl` displayed a melting point of 116 to 118 °C.

`CC(=O)N[C@@H](Cc1c[nH]c2ccc(O)cc12)C(=O)O` returned a melting point of 209 °C.

As to `CC1(C)SC(c2ccco2)NC1C(=O)O` (centres undefined), the melting point lay in the range of 141 to 143 °C.

As for `COC(=O)c1ccc(N2CCC(c3ccc4c(c3)C(C)(C)CCC4(C)C)=N2)cc1`, the melting point lay within 276 to 278 °C.

Compound `Nc1cccc(C23CC2C(=O)NC3=O)c1` (centres undefined) returned a melting point of 135 to 137 °C.

The compound `C=CCN(CC=C)C(=O)n1cnc(S(=O)(=O)CCC)n1` showed a melting point of 41 to 42 °C.

`NS(=O)(=O)c1ccc(-c2cccn2-c2ccc(F)cc2)cc1`: the melting point is 160 to 161 °C.

`O=S(=O)(NCC1CC1)c1cccc(-c2cc(-c3nc(-c4ccc(C(F)(F)F)cc4)cc(C(F)(F)F)n3)ccn2)c1` yielded a melting point of 134 °C.

As to `CCOC(=O)c1cnn(C)c1C(=O)Nc1ccn2nc(-c3ccccc3)nc2c1`, the melting point was 242 to 243 °C.

The compound `Cc1cc(=O)oc2cc(NC(=O)CO)ccc12` returned a melting point of 253 to 254 °C.

As for `CCCCCC1CCC(c2ccc(-c3ccc(Br)cc3C(F)(F)F)cc2)CC1` (centres undefined), the melting point was 51 to 52 °C.

Take `COc1ccc(S(=O)(=O)C2(C(=O)O)CCN(Cc3ccc(Cl)c(Cl)c3)CC2)cc1`: the melting point lay in the range of 192 to 195 °C.

Regarding `CCCCc1nc2ccccc2n1Cc1ccc(C#N)cc1`, the melting point came out at 130 °C.

Compound `CCOC(=O)CNC(=O)Nc1cnc(Nc2ccc(Cl)c(Cl)c2)nc1NC` gave a melting point of 304 °C.

The compound `Cc1ncccc1CN(CCn1cc(C)c2occc2c1=O)Cc1ccc2c(c1)NC(=O)C(C)(C)C(=O)N2CC1CC1` gave a melting point of 220 to 221 °C.

As to `Cc1cn(S(=O)(=O)c2ccc(=O)[nH]n2)c2ccccc12`, the melting point was above 220 °C.

For `Nc1cccc2c1CC=CC2`, the melting point lay in the range of 37 to 39 °C.

In the case of `CN1CCn2c1c(-c1ccccc1)c1ncccc1c2=O`, the melting point was in the range of 237 to 240 °C.

On to `Cc1ccc(NC(=O)Cc2ccc(OC(C)(C)C(=O)O)cc2)cc1`, for which the melting point was 164 °C.

The compound `Cc1ccc(-c2ccc(=S)[nH]n2)c(OCC(O)CNC(C)(C)C)c1` (centres undefined) yielded a melting point of 135 to 140 °C.

`Cc1c(C(=O)N2C[C@@H](C)N[C@@H](C)C2)c2ccccc2n2cnc(C(=O)OC(C)(C)C)c12` registered a melting point of 228 to 232 °C.

`COc1ccc(C2=NNC(=O)[C@H]3CC=CC[C@@H]23)c2c1OC(C)(C)C2` (relative stereo) gave a melting point of 242 °C.
